The record followed here is paper PMC5835321 (Cancer research, 2017).

The test concerns the target T1, PPARG (PPAR-gamma) (Homo sapiens, UniProt P37231).
T1 sequence (P37231 231-505 limits assumed): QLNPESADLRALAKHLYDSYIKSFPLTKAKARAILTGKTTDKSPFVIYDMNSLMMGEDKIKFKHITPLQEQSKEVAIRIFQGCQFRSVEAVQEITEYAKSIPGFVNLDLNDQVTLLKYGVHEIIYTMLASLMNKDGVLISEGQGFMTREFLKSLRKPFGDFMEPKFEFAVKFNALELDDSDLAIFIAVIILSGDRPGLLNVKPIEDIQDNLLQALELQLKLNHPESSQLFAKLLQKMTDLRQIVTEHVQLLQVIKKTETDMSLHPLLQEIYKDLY

Consider `CN(CCOc1ccc(C[C@H](Nc2ccccc2C(=O)c2ccccc2)C(=O)O)cc1)c1ccccn1` [GW1929], for which the “TR-FRET coactivator recruitment and corepressor release; full agonist” value was “Full agonists, such as rosiglitazone, tesaglitazar, GW1929, and pioglitazone, enhanced interaction between PPARG and MED1 coactivator peptide”.
